pIC50: −log10 of the molar value.

One test concerns Ba/F3 cells transfected with T315I BCR-ABL. The experiment in a line: BCR-ABL phospho-ELISA in T315I cells or Ba/F3 T315I proliferation (XTT). The class given is cell-based. The following applies: Mus musculus, BaF3, phospho-ELISA or 72 h XTT proliferation, read-out: P_ELISA_[T3151l_Cells] or Ba/F3 T315l proliferation (XTT). The method, then:
MV4-11 and THP cells were maintained in Iscove's Modified Dulbecco's Medium supplemented with 10% fetal bovine serum (FBS) and penicillin/streptomycin, Ba/F3 cells were maintained in RPMI 1640 supplemented with 10% FBS, penicillin/streptomycin and 5 ng/ml recombinant mouse IL-3.
Compounds were tested in the following assays in duplicate.
96-well XTT assay: Cells were grown in growth media containing various concentrations of compounds (duplicates) on a 96-well plate for 72 hours at 37° C. The starting cell number was 5000-8000 cells per well and volume was 120 μl. At the end of the 72-hour incubation, 40 μl of XTT labeling mixture (50:1 solution of sodium 3′-[1-(phenylamino-carbonyl)-3,4-tetrazolium]-bis(4-methoxy-6-nitro) benzene sulfonic acid hydrate and Electron-coupling reagent: PMS (N-methyl dibenzopyrazine methyl sulfate) were added to each well of the plate. After an additional 2-6 hours of incubation at 37° C., the absorbance reading at 405 nm with background correction at 650 nm was measured with a spectrophotometer.
BCR-ABL Phospho-ELISA Assay
Cells (Ba/F3 cells transfected with WT BCR-ABL, other kinases, or T315I, Y253F, or other mutant forms of BCR-ABL) were grown in the absence of IL-3 at least ½ week before the assay. The day before assay, the cells were fed with fresh media so that at the time of assay the cells were in log phase. Ba/F3 cells that had been grown in the absence of IL-3 for at least ½ week were resuspended in RPMI 1640 so that each well of a 96-well plate would contain approximately 200,000 cells. Cells were distributed in a 96-well plate containing serially diluted concentrations of test compounds. Cells were typically incubated with or without test compounds for 60-120 minutes at 5% CO2, 37° C. The incubation was performed with or without other additives such as 10% FCS or 50% human plasma. After incubation of compounds, lysis buffer was added and incubated for 10-15 minutes; the lysate was cleared by centrifugation.
To make the ELISA plate, commercially available Anti-ABL antibodies (e.g. (Ab-3, Calbiochem OP20) were prepared at a concentration of 0.125 μg/ml in coating buffer (0.1M Na-carbonate, pH 9.5), and plated at 10 ml per plate ([…] 100 μg/ml Ab/10 ml). In a high binding multi-well plate, 100 μl Ab in coating buffer were added to each well, and each plate was covered with a plate seal and incubated overnight at 4° C.
Excess antibody was removed and the ELISA plate was washed 3-4 times with 200 μl of wash buffer (0.05% Tween in PBS, pH 7.4). 150 μl of lysate (see above) were transferred to the ELISA plate. Plates were sealed and incubated 2 hours at room temperature. The detection antibody (e.g. HRP conjugated anti-pTyr or unconjugated α-p-Y 4G10, Upstate) was prepared in assay diluent. The antibody was diluted 1:1000 (stock=2 μg/μl, 200 μg in 100 μl; f.c.=2 μg/ml) in assay diluent and 10 ml of diluted antibody per plate were added. The lysate was removed from the ELISA plates, and wells were washed four times with 200 μl of wash buffer per well. 100 μl of detection antibody was added to each well; the plate was covered, and incubated 1 hr at room temperature (21° C.). Excess detection antibody was removed from the ELISA plates, and the wells were washed four times with 200 μl of wash buffer per well.
If necessary, (i.e. for unconjugated anti-pTyr antibody) secondary antibody (goat anti-rabbit HRP) was diluted 1:3000 in assay diluent (3.33 μl per 10 ml diluent) and added at 10 ml of diluted antibody per plate. Excess secondary antibody was removed from the ELISA plate, and the plate was washed four times with 200 μl per well of wash buffer.
Substrate Reagent A and Substrate Reagent B (Pierce Cat#37070 SuperSignal ELISA Pico Chemiluminescent Substrate) were added immediately before use (10 ml resultant solution per plate). 100 μl substrate were added per well, mixed for 1 minute, and chemiluminescent signal was measured with a luminometer.
A general note: An ELISA detects its analyte on a solid surface through an enzyme-linked reagent.
Regarding `COc1ccccc1-c1n[nH]c2ncc(-c3cccc(C(=O)NC(C)C)c3)cc12`, the pIC50 is 5.00 to 6.00.
Turning to `Cc1ccsc1-c1n[nH]c2ncc(-c3cccc(C(=O)N4CCOCC4)c3)cc12`, the pIC50 is more than 6.00.
On to `CCOc1ccccc1-c1n[nH]c2ncc(-c3cccc(C(=O)N4CCOCC4)c3)cc12`, for which the pIC50 is 5.00 to 6.00.
Consider `COc1ccccc1-c1n[nH]c2ncc(-c3cccc(C(=O)N4CCN(C)CC4)c3)cc12`, for which the pIC50 was more than 6.00.
In the case of `c1ccc(-c2n[nH]c3ncc(-c4cccnc4)cc23)cc1`, the pIC50 was less than 5.00.
Same read-out and setting: the result for `COc1ccccc1-c1n[nH]c2ncc(-c3ccc(O)c(C(=O)N4CCOCC4)c3)cc12` reads more than 6.00; that for `c1ccc(-c2n[nH]c3ncc(-c4ccc5[nH]ccc5c4)cc23)cc1`, 5.00 to 6.00; that for `O=C(c1cccc(-c2cnc3[nH]nc(-c4cccc5cccnc45)c3c2)c1)N1CCOCC1`, more than 6.00.
As for `COc1ccccc1-c1n[nH]c2ncc(-c3ccc(C(=O)NC4CC4)cc3)cc12`, the pIC50 was more than 6.00.
In the case of `Cc1cc(F)ccc1-c1n[nH]c2ncc(-c3cccc(C(=O)N4CCOCC4)c3)cc12`, the pIC50 was 5.00 to 6.00.
As to `O=C(c1cccc(-c2cnc3[nH]nc(-c4ccc5cc[nH]c5c4)c3c2)c1)N1CCOCC1`, the pIC50 is 5.00 to 6.00.
For `COc1cc(-c2cnc3[nH]cc(-c4ccc(C)cc4)c3n2)ccc1O`, the pIC50 was more than 6.00.
With `COc1ccccc1-c1n[nH]c2ncc(-c3ccc(C(=O)N4CCOCC4)cc3)cc12`, the pIC50 is 5.00 to 6.00.
On the same count and under the same terms, under `COc1ccccc1-c1n[nH]c2ncc(-c3cccc(C(=O)N(C)C)c3)cc12` stands more than 6.00; under `COc1ccccc1-c1cnc2[nH]nc(-c3ccccc3OC)c2c1`, 5.00 to 6.00; under `COc1ccccc1-c1n[nH]c2ncc(-c3cccc(S(=O)(=O)NC4CC4)c3)cc12`, more than 6.00.
Turning to `COc1ccccc1-c1n[nH]c2ncc(-c3cccc(C(=O)N4CCN(CCN(C)C)CC4)c3)cc12`, the pIC50 is more than 6.00.
As for `CCN1CCN(C(=O)c2cccc(-c3cnc4[nH]nc(-c5cc(F)ccc5OC)c4c3)c2)CC1`, the pIC50 was more than 6.00.
Take `COc1ccccc1-c1n[nH]c2ncc(-c3cccc(C(=O)N4CCC(CO)CC4)c3)cc12`: the pIC50 was more than 6.00.
On to `Oc1cccc(-c2cnc3[nH]nc(-c4ccccc4)c3c2)c1`, for which the pIC50 is more than 6.00.
For the molecule `COc1ccccc1-c1n[nH]c2ncc(-c3cccc(C(=O)N4CCCC4)c3)cc12`, the pIC50 was more than 6.00.
Same read-out and setting: the result for `COc1ccccc1-c1n[nH]c2ncc(-c3cccnc3)cc12` reads 5.00 to 6.00.
Still for that read-out and setting: the result for `COc1ccccc1-c1n[nH]c2ncc(-c3ccc(C(=O)N4CCN(C)CC4)cc3)cc12` reads more than 6.00; that for `COc1ccccc1-c1n[nH]c2ncc(-c3ccc(C(=O)N4CCCC4)cc3)cc12`, 5.00 to 6.00; that for `COc1ncc(-c2n[nH]c3ncc(-c4cccc(C(=O)N5CCOCC5)c4)cc23)c(OC)n1`, 5.00 to 6.00.
In the case of `CCc1ccccc1-c1n[nH]c2ncc(-c3cccc(C(=O)N4CCOCC4)c3)cc12`, the pIC50 was more than 6.00.
On to `COc1ccccc1-c1c[nH]c2ncc(-c3cccc(C(=O)N(C)C)c3)nc12`, for which the pIC50 is less than 5.00.
The same measure, in the same setting: under `COc1c(F)cccc1-c1n[nH]c2ncc(-c3cccc(C(=O)N4CCOCC4)c3)cc12` stands more than 6.00.
Consider `COc1ccccc1-c1n[nH]c2ncc(-c3cnc4[nH]n(C)c(=O)c4c3)cc12`, for which the pIC50 was 5.00 to 6.00.
Still for that read-out and setting: the result for `COc1ccccc1-c1n[nH]c2ncc(Br)cc12` reads 5.00 to 6.00; that for `Cn1ccc2cc(-c3n[nH]c4ncc(-c5cccc(C(=O)N6CCOCC6)c5)cc34)ccc21`, 5.00 to 6.00; that for `COc1cc(-c2cnc3[nH]nc(-c4ccccc4)c3c2)ccc1O`, 5.00 to 6.00.
As to `O=C(c1cccc(-c2cnc3[nH]nc(-c4ccncc4Cl)c3c2)c1)N1CCOCC1`, the pIC50 was 5.00 to 6.00.

The next test addresses T1, PDK1 kinase (Homo sapiens, UniProt O15530).
T1 construct: 6x Histidine tag (TEV-cleavable) (cleaved yes); made in house; host or cells: Sf9 insect cells
T1 sequence (O15530 1-556): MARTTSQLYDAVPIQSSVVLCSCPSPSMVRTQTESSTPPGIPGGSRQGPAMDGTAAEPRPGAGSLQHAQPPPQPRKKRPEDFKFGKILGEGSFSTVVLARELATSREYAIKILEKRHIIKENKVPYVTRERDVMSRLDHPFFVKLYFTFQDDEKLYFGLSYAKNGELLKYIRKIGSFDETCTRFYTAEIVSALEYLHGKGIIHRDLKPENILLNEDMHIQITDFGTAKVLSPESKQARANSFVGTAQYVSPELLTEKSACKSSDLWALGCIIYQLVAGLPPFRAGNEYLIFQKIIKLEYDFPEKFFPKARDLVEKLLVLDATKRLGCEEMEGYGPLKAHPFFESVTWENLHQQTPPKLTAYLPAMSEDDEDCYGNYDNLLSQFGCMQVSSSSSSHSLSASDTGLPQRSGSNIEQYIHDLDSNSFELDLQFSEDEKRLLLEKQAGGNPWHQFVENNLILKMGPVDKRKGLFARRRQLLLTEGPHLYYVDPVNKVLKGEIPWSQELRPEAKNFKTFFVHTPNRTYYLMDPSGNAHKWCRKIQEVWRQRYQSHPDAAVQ
The experiment in a line: PDK1 luminescence-based enzyme assay (Kinase-Glo). Type of test: biochemical.
Conditions: not given
From the text:
In addition to the c-Abl PK/LDH coupled assay (above), homogeneous luminescence-based inhibitor screening assays were developed for c-Abl, MET, AurA, and PDK1 kinases (among others). Each of these assays made use of an ATP depletion assay (Kinase-Glo™, Promega Corporation, Madison, Wis.) to quantitate kinase activity. The Kinase-Glo™ format uses a thermostable luciferase to generate luminescent signal from ATP remaining in solution following the kinase reaction. The luminescent signal is inversely correlated with the amount of kinase activity.
PDK1 Luminescence-Based Enzyme Assay
Standard Assay Setup for 384-well format (20 μl kinase reaction, 40 μl detection reaction): 10 mM MgCl2; 0.01 mM PDKtide; 1 μl test compound (in DMSO); 0.1 μg/ml PDK1 kinase; 5 μM ATP; 1 mM MgCl2; 100 mM HEPES+0.01% Brij buffer. Positive controls contained DMSO with no test compound. Negative controls contained 10 μM staurosporine. The kinase reactions were initiated at time t=0 by the addition of ATP. Kinase reactions were incubated at 21° C. for 40 min, then 20 μl of Kinase-Glo™ reagent were added to each well to quench the kinase reaction and initiate the luminescence reaction. After a 20 min incubation at 21° C., the luminescence was detected in a plate-reading luminometer.
Background: In Kinase-Glo more light means more ATP remaining.
Molecule `COc1ccccc1-c1n[nH]c2ncc(-c3ccc(C(=O)N4CCOCC4)cc3)cc12` had a pIC50 of 5.00 to 6.00.
With `COc1ccccc1-c1n[nH]c2ncc(-c3ccc(C(=O)N4CCCCC4)cc3)cc12`, the pIC50 is 5.00 to 6.00.
Regarding `COc1ccccc1-c1n[nH]c2ncc(-c3ccc(C(=O)N4CCN(C)CC4)cc3)cc12`, the pIC50 was 5.00 to 6.00.
`COc1ccccc1-c1n[nH]c2ncc(-c3ccc(C(=O)N4CCCC4)cc3)cc12`: the pIC50 was 5.00 to 6.00.
Molecule `COc1cc(-c2cnc3[nH]nc(-c4ccccc4)c3c2)ccc1O` showed a pIC50 of 5.00 to 6.00.

Staying with this test, now noted: read-out: PDK1 IC50.
As for `COc1cc(-c2cnc3[nH]cc(-c4ccc(C)cc4)c3n2)ccc1O`, the pIC50 is 5.00 to 6.00.

For the origin of these results see patent US7626021B2, “Fused ring heterocycle kinase modulators” (SGX Pharmaceuticals, Inc., priority 2004, dated 2009).
